Patent publication US12502386B2, “Nitrogen-containing heterocyclic compound and use thereof” (SHANGHAI SHIJIANG BIOTECHNOLOGY CO., LTD, priority 2022, dated 2025)
Where two headings read alike, the source gives them in different places.

Assays:
[1] = system: sh-DNMT1 NCI-H82 cell; assay: CellTiter-Glo cell viability, sh-DNMT1 NCI-H82 cell (DNMT1 knocked down); assay type: cell-based, human; details: Homo sapiens, NCI-H82, NCI-H82 with DNMT1 knocked down by shRNA, intracellular ATP, read-out: inhibitory effect on sh-DNMT1 NCI-H82 (IC50)
[2] = system: NB-1; assay: CellTiter-Glo cell viability, brain tumor cell line NB-1; assay type: cell-based; details: Homo sapiens, NB1, 72 h; brain neuroblastoma cell; 3 days of culture; read-out: inhibitory effect on NB-1 (IC50)
Description: (§1) Cell viability was detected using the Promega CellTiter-Glo kit, cell viability was determined by directly measuring intracellular ATP content. In the experiment, the IC50 value of the compounds prepared in the Examples of the present invention on various brain tumor cell lines was detected.
(§2) Each tumor cell was cultured in relevant medium. After cell passage, the gradient diluted compounds prepared in the Examples of the present invention was added. After 3 days of culture, the relevant IC50 (50% inhibiting concentration) was measured. The name, source and culture conditions of each tumor cell line were as follows: […]

[3] = system: GB-1; assay: CellTiter-Glo cell viability, tumor cell line GB-1; assay type: cell-based; details: GB-1, 72 h; human brain glioblastoma cell; 3 days of culture; read-out: inhibitory effect on GB-1 (IC50)
Description: (§3) Cell viability was detected using the Promega CellTiter-Glo kit, cell viability was determined by directly measuring intracellular ATP content. In the experiment, the IC50 value of the compounds prepared in the Examples of the present invention on various tumor cell lines was detected.
(§4) Each tumor cell was cultured in relevant medium. After cell passage, the gradient diluted compounds prepared in the Examples of the present invention was added. After 3 days of culture, the relevant IC50 (50% inhibiting concentration) was measured. The name, source and culture conditions of each tumor cell line were as follows:
Cell line GB-1 (JCRB, No. IFO50489) was cultured in 10% fetal bovine serum-containing DMEM medium (+P/S).
as §1

[4] = system: NCI-H82; assay: CellTiter-Glo cell viability, tumor cell line NCI-H82; assay type: cell-based; details: NCI-H82, 72 h; human small cell lung cancer cell; 3 days of culture; read-out: inhibitory effect on NCI-H82 (IC50)
Description: as §3, §4
Cell line NCI-H82 (ATCC, No. HTB-175) was cultured in 10% fetal bovine serum-containing RPMI1640 medium (+P/S).

[5] = system: Kelly; assay: CellTiter-Glo cell viability, brain tumor cell line Kelly; assay type: cell-based; details: Homo sapiens, 72 h, brain neuroblastoma cell, 3 days of culture, read-out: inhibitory effect on Kelly (IC50)
Description: as §1, §4
Cell line Kelly (ECACC, No. 92110411) was cultured in 10% fetal bovine serum and 2 mM glutamine-containing RPMI1640 medium.

[6] = system: 786-O; assay: CellTiter-Glo cell viability, tumor cell line 786-O; assay type: cell-based; details: Homo sapiens, 786-0, 72 h; clear cell renal cell adenocarcinoma cell; 3 days of culture; read-out: inhibitory effect on 786-O (IC50)
Description: as §3, §4
Cell line 786-0 (ATCC, No. CRL-1932) was cultured in 10% fetal bovine serum-containing RPMI164B medium (+P/S).

[7] = system: ov-NNMT NCI-H82 cell; assay: CellTiter-Glo cell viability, ov-NNMT NCI-H82 cell (NNMT overexpressed); assay type: cell-based, human; details: intracellular ATP, read-out: inhibitory effect on OV-NNMT NCI-H82 (IC50)
[8] = system: SW48; assay: CellTiter-Glo cell viability, tumor cell line SW48; assay type: cell-based; details: SW48, 72 h; human colon adenocarcinoma cell; 3 days of culture; read-out: inhibitory effect on SW48 (IC50)
Description: as §3, §4
Cell line SW48 (ATCC, No. CCL-231) was cultured in 10% fetal bovine serum-containing Leibovitz's L-15 medium (+P/S).

[9] = system: MDA-MB-453; assay: CellTiter-Glo cell viability, tumor cell line MDA-MB-453; assay type: cell-based; details: Homo sapiens, MDA-MB-453, 72 h; breast cancer cell; 3 days of culture; read-out: inhibitory effect on MDA-MB-453 (IC50)
Description: as §3, §2

[10] = system: Con-NCI-H82 cell; assay: CellTiter-Glo cell viability, Con-NCI-H82 cell (empty-vector control); assay type: cell-based, human; details: Homo sapiens, NCI-H82, NCI-H82 transfected with empty virus vector (control), intracellular ATP, read-out: inhibitory effect on Con-NCI-H82 (IC50)
[11] = system: D341 Med; assay: CellTiter-Glo cell viability, brain tumor cell line D341 Med; assay type: cell-based; details: Homo sapiens, 72 h, cerebellar medulloblastoma cell, 3 days of culture, read-out: inhibitory effect on D341 Med (IC50)
Description: as §1, §4
Cell line D341 Med (ATCC, No. HTB-187) was cultured in 20% fetal bovine serum-containing EMEM medium (+P/S).

[12] = system: SF-126; assay: CellTiter-Glo cell viability, tumor cell line SF-126; assay type: cell-based; details: SF-126, 72 h, read-out: inhibitory effect on SF-126 (IC50); human glioblastoma multiforme cell; 3 days of culture
Description: as §3, §4
Cell line SF126 (JCRB, No. IFO50286) was cultured in 10% fetal bovine serum-containing EMEM medium (+P/S).
as §1

[13] = system: G-401; assay: CellTiter-Glo cell viability, tumor cell line G-401; assay type: cell-based; details: G-401, 72 h; human renal carcinoma Wilms cell; 3 days of culture; read-out: inhibitory effect on G-401 (IC50)
Description: as §3, §4
Cell line G-401 (ATCC, No. CRL-1441) was cultured in 10% fetal bovine serum-containing McCoy's 5a medium (+P/S).

[14] = system: CFPAC-1; assay: CellTiter-Glo cell viability, tumor cell line CFPAC-1; assay type: cell-based; details: CFPAC-1, 72 h; human pancreatic cancer cell; 3 days of culture; read-out: inhibitory effect on CFPAC-1 (IC50)
Description: as §3, §4
Cell line CFPAC-1 (ATCC, No. CRL-1918) was cultured in 10% fetal bovine serum-containing IMDM medium (+P/S).

[15] = Homo sapiens, NCI-H82, NCI-H82 overexpressing NNMT protein

Compound | IC50 [1] [µM] | IC50 [7, 15] [µM] | IC50 [10] [µM] | also measured
COc1ccc2c(c1OCCCF)CN1CCc3cc4c(cc3C1=C2)OCO4 [AB35590] | 4.04 | 4.68 | 1.52 | IC50 [2]: 1.99 µM; IC50 [3]: 22.5 µM; IC50 [4]: 1.52 µM; IC50 [5]: 3.16 µM; IC50 [6]: 13.9 µM; IC50 [8]: 2.15 µM; IC50 [9]: 1.98 µM; IC50 [11]: 2.78 µM; IC50 [12]: 17.7 µM; IC50 [13]: 2.66 µM; IC50 [14]: 15.3 µM
COc1ccc2c(c1OCCCCOc1ccccc1)C(C(Cl)(Cl)Cl)N1CCc3cc4c(cc3C1=C2)OCO4 (stereo not shown) [AB35476] | 4.56 | 3.69 | 0.99 | IC50 [2]: 2.46 µM; IC50 [3]: 15.8 µM; IC50 [4]: 0.99 µM; IC50 [5]: 1.32 µM; IC50 [6]: 12.3 µM; IC50 [8]: 1.11 µM; IC50 [9]: 0.85 µM; IC50 [11]: 0.89 µM; IC50 [12]: 18.3 µM; IC50 [13]: 1.32 µM; IC50 [14]: 14.2 µM
COc1ccc2c(c1OCCCCCl)C(C(Cl)(Cl)Cl)N1CCc3cc4c(cc3C1=C2)OCO4 (stereo not shown) [AB35496] | 8.24 | 6.32 | 2.92 | –
COc1ccc2c(c1N1CCC(NC(=O)OC(C)(C)C)CC1)C(C(Cl)(Cl)Cl)N1CCc3cc4c(cc3C1=C2)OCO4 (stereo not shown) [AB35465] | 8.84 | 9.32 | 2.69 | –
COc1ccc2c(c1OCCCCl)C(C)N1CCc3cc4c(cc3C1=C2)OCO4 (stereo not shown) [AB35456] | 8.42 | 6.72 | 2.36 | –
COc1ccc2c(c1OCCF)CN1CCc3cc4c(cc3C1=C2)OCO4 [AB35599] | 6.42 | 3.43 | 1.38 | –
COc1ccc2c(c1N1CCC(Cl)CC1)CN1CCc3cc4c(cc3C1=C2)OCCO4 [AB35550] | 4.58 | 4.69 | 2.12 | –
CCCCCCOc1c(OC)ccc2c1C(C(Cl)(Cl)Cl)N1CCc3cc4c(cc3C1=C2)OCO4 (stereo not shown) [AB35487] | 3.23 | 1.98 | 0.49 | –
COc1ccc2c(c1OCCCBr)CN1CCc3cc4c(cc3C1=C2)OCO4 [AB35544] | 2.04 | 1.02 | 0.28 | –
CCCCCOc1c(OC)ccc2c1C(C(Cl)(Cl)Cl)N1CCc3cc4c(cc3C1=C2)OCO4 (stereo not shown) [AB35505] | 3.36 | 2.14 | 0.52 | –
COc1ccc2c(c1NCCc1ccccc1)C(C)N1CCc3cc4c(cc3C1=C2)OCO4 (stereo not shown) [AB31895] | 4.68 | 3.24 | 1.14 | –
COc1ccc2c(c1N1CCC(C)CC1)C(C(Cl)(Cl)Cl)N1CCc3cc4c(cc3C1=C2)OCO4 (stereo not shown) [AB35453] | 2.08 | 1.32 | 0.23 | –
CCCC1=C2c3cc4c(cc3CCN2C(C(Cl)(Cl)Cl)c2c1ccc(OC)c2OC)OCO4 (stereo not shown) [AB35492] | 4.44 | 4.56 | 1.46 | –
COc1ccc2c(c1OCCCCCCCl)C(C1CCCC1)N1CCc3cc4c(cc3C1=C2)OCO4 (stereo not shown) [AB35440] | 4.12 | 2.56 | 0.98 | –
COc1ccc2c(c1OCCCCCCNC(=O)OC(C)(C)C)C(C)N1CCc3cc4c(cc3C1=C2)OCO4 (stereo not shown) [AB35415] | 5.48 | 3.42 | 1.14 | –
COc1ccc2c(c1OC)C(C1CCCC1)N1CCc3cc4c(cc3C1=C2CCc1ccccc1)OCO4 (stereo not shown) [AB35448] | 2.88 | 2.98 | 1.34 | –
COc1ccc2c(c1OC)C(C1CCCCC1=O)N1CCc3cc4c(cc3C1=C2)OCO4 (stereo not shown) [AB36525] | 3.96 | 3.53 | 3.86 | –

Compound | IC50 [1] [µM] | IC50 [7, 15] [µM] | IC50 [10] [µM] | also measured
CCCC1=C2c3cc4c(cc3CCN2C(C(Cl)(Cl)Cl)c2c1ccc1c2OCO1)OCO4 (stereo not shown) [AB36427] | 6.98 | 7.56 | 3.28 | –
COc1ccc2c(c1OCCCCl)C(C1CCC1)N1CCc3cc4c(cc3C1=C2)OCO4 (stereo not shown) [AB35490] | 8.46 | 7.52 | 2.68 | –
CCCCCC1=C2c3cc4c(cc3CCN2C(C)c2c1ccc(OC)c2OC)OCO4 (stereo not shown) [AB35422] | 4.94 | 5.48 | 2.32 | –
CCC1=C2c3cc4c(cc3CCN2C(C(Cl)(Cl)Cl)c2c1ccc(OC)c2OC)OCO4 (stereo not shown) [AB35488] | 9.32 | 7.56 | 1.98 | –
COc1ccc2c(c1OC)C(C(Cl)(Cl)Cl)N1CCc3cc4c(cc3C1=C2CCCc1ccccc1)OCCO4 (stereo not shown) [AB35484] | 3.32 | 3.56 | 0.77 | –
CCCCC1c2c(c(Br)cc(OC)c2OC)C=C2c3cc4c(cc3CCN21)OCO4 (stereo not shown) [AB31873] | 6.08 | 6.32 | 2.88 | –
COc1c(OCCCCl)ccc2c1C(C1CCCC1)N1CCc3cc4c(cc3C1=C2)OCO4 (stereo not shown) [AB36474] | 6.08 | 4.12 | 1.33 | –
COc1ccc2c(c1OC)C(C1CCCC1)N1CCc3cc4c(cc3C1=C2)OCO4 (stereo not shown) [AB31900] | – | – | – | IC50 [2]: 0.88 µM; IC50 [3]: > 30 µM; IC50 [4]: 1.08 µM; IC50 [5]: 1.12 µM; IC50 [6]: 15.7 µM; IC50 ([7]; NCI-H82 overexpressing NNMT protein): 4.88 µM; IC50 [8]: 1.28 µM; IC50 [9]: 1.46 µM; IC50 [11]: 0.98 µM; IC50 [12]: 20.1 µM; IC50 [13]: 1.32 µM; IC50 [14]: 18.3 µM
[2H]C1([2H])c2c(ccc(OC)c2OC)C=C2c3cc4c(cc3CCN21)OCO4 [AB36434] | 3.68 | 2.56 | 1.02 | –
COc1ccc2c(c1NCCc1ccccc1)C(C1CCCC1)N1CCc3cc4c(cc3C1=C2)OCO4 (stereo not shown) [AB35457] | 2.33 | 2.56 | 0.96 | –
COc1ccc2c(c1OCCCCNC(=O)OC(C)(C)C)C(C(Cl)(Cl)Cl)N1CCc3cc4c(cc3C1=C2)OCO4 (stereo not shown) [AB35423] | 4.36 | 4.96 | 2.16 | –
[2H]C1([2H])Cc2cc3c(cc2C2=Cc4ccc(OC)c(OC)c4CN21)OCO3 [AB36476] | 7.34 | 4.86 | 1.24 | –
COc1ccc2c(c1OCCCCCCCl)C(C(Cl)(Cl)Cl)N1CCc3cc4c(cc3C1=C2)OCO4 (stereo not shown) [AB35475] | 4.02 | 4.12 | 1.29 | –
COc1ccc2c(c1OCCCCCCNC(=O)OC(C)(C)C)C(C(Cl)(Cl)Cl)N1CCc3cc4c(cc3C1=C2)OCO4 (stereo not shown) [AB35407] | 3.44 | 2.73 | 0.74 | –
CCCCC1=C2c3cc4c(cc3CCN2C(C(Cl)(Cl)Cl)c2c1ccc(OC)c2OC)OCO4 (stereo not shown) [AB35502] | 7.02 | 7.18 | 2.93 | –
COc1ccc2c(c1OCCN1CCCCC1)C(C)N1CCc3cc4c(cc3C1=C2)OCO4 (stereo not shown) [AB35443] | 20.9 | 18.1 | 20.6 | –
